Among the data in US20240116985A1, “STAPLED PEPTIDES AND METHODS THEREOF” (priority 2020, published 2024) are IC50 values, retold here.

Each structure is given as a SMILES string.

Assay [1] deals with T1, beta-catenin/TCF4 engagement (Homo sapiens, UniProt P35222).
T1 construct: expressed in transfected cells; host or cells: HEK293
T1 sequence (P35222 1-781): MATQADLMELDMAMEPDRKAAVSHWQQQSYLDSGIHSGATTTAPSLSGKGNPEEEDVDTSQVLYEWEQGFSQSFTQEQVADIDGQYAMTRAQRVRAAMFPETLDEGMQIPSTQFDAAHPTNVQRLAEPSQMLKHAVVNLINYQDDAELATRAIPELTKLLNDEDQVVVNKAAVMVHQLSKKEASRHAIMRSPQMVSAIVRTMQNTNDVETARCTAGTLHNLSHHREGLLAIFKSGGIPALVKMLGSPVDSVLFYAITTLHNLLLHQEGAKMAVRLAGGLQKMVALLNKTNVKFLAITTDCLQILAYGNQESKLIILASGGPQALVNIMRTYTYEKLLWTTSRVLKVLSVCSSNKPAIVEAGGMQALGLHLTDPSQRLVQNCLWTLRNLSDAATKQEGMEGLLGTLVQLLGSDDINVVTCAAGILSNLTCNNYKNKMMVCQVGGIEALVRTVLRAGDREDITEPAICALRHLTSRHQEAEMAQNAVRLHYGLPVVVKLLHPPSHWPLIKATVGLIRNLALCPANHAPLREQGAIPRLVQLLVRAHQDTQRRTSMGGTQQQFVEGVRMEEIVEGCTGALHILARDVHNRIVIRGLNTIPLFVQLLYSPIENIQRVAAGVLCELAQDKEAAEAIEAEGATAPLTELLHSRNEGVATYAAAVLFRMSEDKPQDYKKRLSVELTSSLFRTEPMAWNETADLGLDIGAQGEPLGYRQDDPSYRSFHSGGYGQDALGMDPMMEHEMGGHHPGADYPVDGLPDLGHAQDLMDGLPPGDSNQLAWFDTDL
Nature of the assay: Nano-BRET target engagement assay (B-cat-Halo & TCF4-Luc in HEK293 cells). It counts as cell-based. As to conditions: read-out: NanoBRET Abs IC50. On the technique in general: In BRET a luciferase serves as donor, and the signal depends on an acceptor being close.

Assay [2] addresses T2, full-length beta-Catenin (Uniprot ID P35222) (Homo sapiens, UniProt P35222).
T2 construct: 10 nM full-length beta-Catenin (Uniprot ID P35222)
T2 sequence (P35222 1-781): T1 sequence (P35222 1-781)
Put plainly: Fluorescence polarization IC50 (beta-catenin / 5FAM-TCF4 10-53 competition). It counts as binding. As to conditions: fluorescence polarization; read-out: beta-Catenin FP IC50. (In general: In fluorescence polarisation assays a small probe gives low polarisation when free and higher when bound to something large.)

By IC50 is commonly meant the midpoint of a concentration-inhibition curve. For the molecule `CC(=O)N1CCC[C@]12CCCC[C@@](C)(C(=O)N[C@@H](CC(=O)O)C(=O)N[C@@H](CC(=O)O)C(=O)N[C@@H](C)C(=O)N[C@@H](C)C(=O)N[C@@H](Cc1ccccc1)C(=O)N[C@@H](CC(C)C)C(=O)NC(C)(C)C(=O)N[C@@H](Cc1ccsc1)C(=O)N[C@@H](Cc1csc3ccccc13)C(=O)N[C@@H](CCC(N)=O)C(N)=O)NC(=O)[C@H](CC(C)(C)C)NC(=O)[C@H](CC(=O)O)NC2=O` [I-1983, Ac-PL3-Asp-Npg-S3-Asp-Asp-Ala-Ala-Phe-Leu-Aib-3Thi-BztA-Gln-NH2], the figures for the IC50 in assay [1] and in assay [2] were over 20000 nM and 186 nM, respectively.
The corresponding values for `CC(=O)N1CCC[C@]12CC=CCCCC1(CCCC=CCCCOC(=O)N3CC[C@@](C(=O)N[C@@H](Cc4ccccc4Cl)C(=O)N[C@@H](Cc4csc5ccccc45)C(=O)N[C@@H](C)C(N)=O)(C3)NC(=O)[C@H](C)NC(=O)[C@H](Cc3ccccc3)NC(=O)[C@H](C)NC(=O)[C@H](C)NC(=O)[C@H](Cc3cccc(C(=O)O)c3)NC(=O)[C@H](CC(=O)O)NC1=O)NC(=O)[C@H](CC(C)(C)C)NC(=O)[C@H](CC(=O)O)NC2=O` (stereo partly drawn) [I-2023, Ac-PL3-Asp-Npg-B5-Asp-3COOHF-Ala-Ala-Phe-Ala-PyrS2-2C1F-BztA-Ala-NH2] are 7800 nM and 32 nM.
The corresponding values for `CC(=O)N1CCC[C@]12CC=CCCCC1(CCCC=CCCCOC(=O)N3CC[C@@](C(=O)N[C@@H](Cc4ccccc4Cl)C(=O)N[C@@H](Cc4csc5ccccc45)C(=O)N[C@H](C(N)=O)C(C)C)(C3)NC(=O)[C@H](C)NC(=O)[C@H](Cc3ccccc3)NC(=O)[C@H](C)NC(=O)[C@H](C)NC(=O)[C@H](Cc3cccc(C(=O)O)c3)NC(=O)[C@H](CC(=O)O)NC1=O)NC(=O)[C@H](CC(C)(C)C)NC(=O)[C@H](CC(=O)O)NC2=O` (stereo partly drawn) [I-2024, Ac-PL3-Asp-Npg-B5-Asp-3COOHF-Ala-Ala-Phe-Ala-PyrS2-2C1F-BztA-Val-NH2] are 17900 nM and 78 nM.
With `CC(=O)N1CCC[C@]12CC=CCCCC1(CCCC=CCCCOC(=O)N3CC[C@@](C(=O)N[C@@H](Cc4ccccc4Cl)C(=O)N[C@@H](Cc4csc5ccccc45)C(=O)N[C@H](C)C(N)=O)(C3)NC(=O)[C@H](C)NC(=O)[C@H](Cc3ccccc3)NC(=O)[C@H](C)NC(=O)[C@H](C)NC(=O)[C@H](Cc3cccc(C(=O)O)c3)NC(=O)[C@H](CC(=O)O)NC1=O)NC(=O)[C@H](CC(C)(C)C)NC(=O)[C@H](CC(=O)O)NC2=O` (stereo partly drawn) [I-2026, Ac-PL3-Asp-Npg-B5-Asp-3COOHF-Ala-Ala-Phe-Ala-PyrS2-2C1F-BztA-dAla-NH2], the results for the IC50 in assay [1] and in assay [2] were 9700 nM and 26 nM, respectively.
The corresponding values for `CC(=O)N1CCC[C@]12CC=CCCCC1(CCCC=CCCCOC(=O)N3CC[C@@](C(=O)N[C@@H](Cc4ccccc4Cl)C(=O)N[C@@H](Cc4csc5ccccc45)C(=O)N[C@@H](C)C(N)=O)(C3)NC(=O)[C@H](CO)NC(=O)[C@H](Cc3ccccc3)NC(=O)[C@H](C)NC(=O)[C@H](C)NC(=O)[C@H](Cc3cccc(C(=O)O)c3)NC(=O)[C@H](CC(=O)O)NC1=O)NC(=O)[C@H](CC(C)(C)C)NC(=O)[C@H](CC(=O)O)NC2=O` (stereo partly drawn) [I-2027, Ac-PL3-Asp-Npg-B5-Asp-3COOHF-Ala-Ala-Phe-Ser-PyrS2-2C1F-BztA-Ala-NH2] are 4100 nM and 13 nM.
As for `CC(=O)N1CCC[C@]12CC=CCCCC1(CCCC=CCCCOC(=O)N3CC[C@@](C(=O)N[C@@H](Cc4ccccc4Cl)C(=O)N[C@@H](Cc4csc5ccccc45)C(=O)N[C@H](C(N)=O)C(C)C)(C3)NC(=O)[C@H](CO)NC(=O)[C@H](Cc3ccccc3)NC(=O)[C@H](C)NC(=O)[C@H](C)NC(=O)[C@H](Cc3cccc(C(=O)O)c3)NC(=O)[C@H](CC(=O)O)NC1=O)NC(=O)[C@H](CC(C)(C)C)NC(=O)[C@H](CC(=O)O)NC2=O` (stereo partly drawn) [I-2028, Ac-PL3-Asp-Npg-B5-Asp-3COOHF-Ala-Ala-Phe-Ser-PyrS2-2C1F-BztA-Val-NH2], the IC50 in assay [1] came to 17600 nM; in assay [2] it was 32 nM.
The corresponding values for `CC(=O)N1CCC[C@]12CC=CCCCC1(CCCC=CCCCOC(=O)N3CC[C@@](C(=O)N[C@@H](Cc4ccccc4Cl)C(=O)N[C@@H](Cc4csc5ccccc45)C(=O)N[C@@H](Cc4ccccc4)C(N)=O)(C3)NC(=O)[C@H](CO)NC(=O)[C@H](Cc3ccccc3)NC(=O)[C@H](C)NC(=O)[C@H](C)NC(=O)[C@H](Cc3cccc(C(=O)O)c3)NC(=O)[C@H](CC(=O)O)NC1=O)NC(=O)[C@H](CC(C)(C)C)NC(=O)[C@H](CC(=O)O)NC2=O` (stereo partly drawn) [I-2029, Ac-PL3-Asp-Npg-B5-Asp-3COOHF-Ala-Ala-Phe-Ser-PyrS2-2C1F-BztA-Phe-NH2] are 26200 nM and 35 nM.
On to `CC(=O)N1CCC[C@]12CC=CCCCC1(CCCC=CCCCOC(=O)N3CC[C@@](C(=O)N[C@@H](Cc4ccccc4Cl)C(=O)N[C@@H](Cc4csc5ccccc45)C(=O)N[C@H](C)C(N)=O)(C3)NC(=O)[C@H](CO)NC(=O)[C@H](Cc3ccccc3)NC(=O)[C@H](C)NC(=O)[C@H](C)NC(=O)[C@H](Cc3cccc(C(=O)O)c3)NC(=O)[C@H](CC(=O)O)NC1=O)NC(=O)[C@H](CC(C)(C)C)NC(=O)[C@H](CC(=O)O)NC2=O` (stereo partly drawn) [I-2030, Ac-PL3-Asp-Npg-B5-Asp-3COOHF-Ala-Ala-Phe-Ser-PyrS2-2C1F-BztA-dAla-NH2], for which the IC50 was determined as 3900 nM in assay [1] and 22 nM in assay [2].
With `CC(=O)N1CCC[C@]12CC=CCCCC1(CCCC=CCCCOC(=O)N3CC[C@@](C(=O)N[C@@H](Cc4ccccc4Cl)C(=O)N[C@@H](Cc4csc5ccccc45)C(=O)N[C@@H](C)C(N)=O)(C3)NC(=O)[C@H](CC(N)=O)NC(=O)[C@H](Cc3ccccc3)NC(=O)[C@H](C)NC(=O)[C@H](C)NC(=O)[C@H](Cc3cccc(C(=O)O)c3)NC(=O)[C@H](CC(=O)O)NC1=O)NC(=O)[C@H](CC(C)(C)C)NC(=O)[C@H](CC(=O)O)NC2=O` (stereo partly drawn) [I-2031, Ac-PL3-Asp-Npg-B5-Asp-3COOHF-Ala-Ala-Phe-Asn-PyrS2-2C1F-BztA-Ala-NH2], the IC50 in assay [1] is 4700 nM; in assay [2], 11 nM.
As for `CC(=O)N1CCC[C@]12CC=CCCCC1(CCCC=CCCCOC(=O)N3CC[C@@](C(=O)N[C@@H](Cc4ccccc4Cl)C(=O)N[C@@H](Cc4csc5ccccc45)C(=O)N[C@H](C(N)=O)C(C)C)(C3)NC(=O)[C@H](CC(N)=O)NC(=O)[C@H](Cc3ccccc3)NC(=O)[C@H](C)NC(=O)[C@H](C)NC(=O)[C@H](Cc3cccc(C(=O)O)c3)NC(=O)[C@H](CC(=O)O)NC1=O)NC(=O)[C@H](CC(C)(C)C)NC(=O)[C@H](CC(=O)O)NC2=O` (stereo partly drawn) [I-2032, Ac-PL3-Asp-Npg-B5-Asp-3COOHF-Ala-Ala-Phe-Asn-PyrS2-2C1F-BztA-Val-NH2], the IC50 is 20900 nM in assay [1] and 16 nM in assay [2].
With `CC(=O)N1CCC[C@]12CC=CCCCC1(CCCC=CCCCOC(=O)N3CC[C@@](C(=O)N[C@@H](Cc4ccccc4Cl)C(=O)N[C@@H](Cc4csc5ccccc45)C(=O)N[C@@H](Cc4ccccc4)C(N)=O)(C3)NC(=O)[C@H](CC(N)=O)NC(=O)[C@H](Cc3ccccc3)NC(=O)[C@H](C)NC(=O)[C@H](C)NC(=O)[C@H](Cc3cccc(C(=O)O)c3)NC(=O)[C@H](CC(=O)O)NC1=O)NC(=O)[C@H](CC(C)(C)C)NC(=O)[C@H](CC(=O)O)NC2=O` (stereo partly drawn) [I-2033, Ac-PL3-Asp-Npg-B5-Asp-3COOHF-Ala-Ala-Phe-Asn-PyrS2-2C1F-BztA-Phe-NH2], the figures for the IC50 in assay [1] and in assay [2] were 9500 nM and 30 nM, respectively.
